According to patent publication EP2881391A1, “Spiroindoline carbocycle derivatives and pharmaceutical compositions thereof” (Bayer Pharma Aktiengesellschaft, priority 2013, dated 2015):

Each compound was assayed against T1, human GnRH receptor (Homo sapiens, UniProt P30968) (assay: IP-One HTRF assay (inhibition of GnRH-R activation by buserelin)). Settings: IP-One HTRF assay with buserelin (at EC80) stimulation; CHO cells stably expressing human GnRH receptor; tested 20 µM to 1 nM; read-out: Potency IC50.
T1 construct: line established by Prof; Thomas Gudermann; host or cells: CHO cells
T1 sequence (P30968 1-328): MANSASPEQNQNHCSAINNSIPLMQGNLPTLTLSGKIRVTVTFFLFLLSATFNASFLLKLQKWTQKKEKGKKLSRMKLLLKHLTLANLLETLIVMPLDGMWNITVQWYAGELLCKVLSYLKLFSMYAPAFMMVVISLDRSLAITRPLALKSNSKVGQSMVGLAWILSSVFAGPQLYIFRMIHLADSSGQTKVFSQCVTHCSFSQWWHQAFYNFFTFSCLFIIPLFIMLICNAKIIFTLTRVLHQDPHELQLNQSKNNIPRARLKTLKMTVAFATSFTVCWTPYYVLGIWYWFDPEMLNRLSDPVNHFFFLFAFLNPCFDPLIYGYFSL
Type: cell-based
Text: By using homogenous time-resolved fluorescence resonance energy transfer (HTRF), the generation of one component of the GnRH-R signalling cascade can be measured. After stimulation of CHO cells stably expressing human GnRH receptor (established by Prof. Thomas Gudermann, currently University of Marburg, Germany; supplied as frozen cell aliquots by Cell Culture Services, Hamburg, Germany) with the EC80 of the GnRH agonist buserelin, Gq protein-coupled receptor signalling cascade is activated resulting in PLC-dependent cleavage of PIP2 to Inositol-1,4,5-triphosphate (IP3) and Diacylglycerol. The second messenger IP3 is degraded intracellularly to myo-inositol. Inhibition of the final degradation step from Inositol-1-phosphate (IP1) to myo-inositol by addition of lithium chloride leads to accumulation of IP1 in the cells. In cell lysates, IP1 can be detected via an antibody-based HTRF detection technology, where IP1 can displace the FRET acceptor IP1-d2 from binding by Terbium-labelled anti-IP1 antibody as donor resulting in a signal decrease. Compounds were tested for their capability of inhibiting GnRH-R activation by buserelin. For all IP-One HTRF® assays reagents of Cisbio Bioassays (IP-One Tb Jumbo kit, #62IPAPEJ; Cisbio Bioassays, Bagnols sur Cèze Cedex, France) were used.
For the assay, frozen cell aliquots were thawed and a cell suspension (3.33x10^6 cells/ml) containing IP1-d2 (dilution 1:40) was prepared and incubated at 37°C. After 1 h 3 µl of the cell suspension were added to 50 nl of a 100-fold concentrated solution of the test compound in DMSO pre-dispensed in a well of a white low-volume 384-well microtiter plate (Greiner Bio-One, Frickenhausen, Germany). The mixture was incubated for 20 min at 22°C to allow for pre-binding of the test compound to the GnRH-R. The receptor signaling cascade was stimulated by addition of 2 µl buserelin or LHRH (at EC50 or EC80) in stimulation buffer (10 mM Hepes pH 7.4, 1 mM CaCl2, 0.5 mM MgCl2, 4.2 mM KCI, 146 mM NaCl, 5.5 mM α-D-Glucose, 0.05% BSA, 125 mM LiCl (final assay concentration 50 mM) in aqua dest.). Plates were incubated for 1 h at 37°C and 5% carbon dioxide before the cells were lysed by adding 3 µl Terbium-labelled anti-IP1 antibody (1:40) diluted in Conjugate & Lysis buffer as supplied with the kit. After an incubation for 1 h at 22°C to enable complete cell lysis and antibody binding to free IP1 or IP1-d2, plates were measured in an HTRF reader, e.g. a RUBYstar, PHERAstar (both BMG Labtechnologies, Offenburg, Germany) or a Viewlux (PerkinElmer LAS, Rodgau-Jügesheim, Germany). From the fluorescence emissions at 665 nm (FRET) and at 620 nm (background signal of Terbium-antibody), the ratio (emission at 665 nm divided by emission at 620 nm) was calculated and the data were normalized (reaction without test compound = 0% inhibition; all other assay components except agonist = 100% inhibition). On the same microtiter plate, compounds were tested at 10 different concentrations in the range of 20 µM to 1 nM (20 µM, 6.7 µM, 2.2 µM, 0.74 µM, 0.25 µM, 82 nM, 27 nM, 9.2 nM, 3.1 nM and 1 nM; dilution series prepared before the assay at the level of the 100-fold conc. stock solutions by serial 1:3 dilutions in 100% DMSO) in duplicate values for each concentration. By using an in-house software, the IC50 values were calculated by a 4 parameter fit. The data reveal that the compounds of the present invention have antagonist activities on the human GnRH receptor. Within the meaning of the present invention the antagonist activity is reflected by the ability of a compound of the invention to antagonize human GnRH receptor stimulation in IP-One HTRF® assay at least three times the standard deviation over the background level.
Work on `O=C(NCc1ccccc1Cl)c1ccc2c(c1)C1(CCC(O)(C(F)(F)F)CC1)C(C1CC1)N2S(=O)(=O)c1ccc(F)cc1` (single isomer, unassigned) [Example 62-1] yielded an IC50 of 101 nM. `Cc1cncc(NC(=O)c2ccc3c(c2)C2(CCC(O)(C(F)(F)F)CC2)C(C2CC2)N3S(=O)(=O)c2ccc(F)cc2)c1` (stereo not drawn) [Example 25, 2'-cyclopropyl-1'-[(4-fluorophenyl)sulfonyl]-4-hydroxy-N-(5-methylpyridin-3-yl)-4-(trifluoromethyl)-1',2'-dihydrospiro[cyclohexane-1,3'-indole]-5'-carboxamide] was tested, and the IC50 was 559 nM. `O=C(NCc1ccccc1Cl)c1ccc2c(c1)C1(CCC(F)(F)CC1)C(C1CC1)N2S(=O)(=O)c1ccc(F)cc1` (stereo not drawn) [Example 6, N-(2-chlorobenzyl)-2'-cyclopropyl-4,4-difluoro-1'-[(4-fluorophenyl)sulfonyl]-1',2'-dihydrospiro[cyclohexane-1,3'-indole]-5'-carboxamide] gave an IC50 of 489 nM. In the case of `COc1cccc(S(=O)(=O)N2c3ccc(C(=O)Nc4cccc(C)c4)cc3C3(CCC(O)(C(F)(F)F)CC3)C2C2CC2)c1` (stereo not drawn) [Example 34, 2'-cyclopropyl-4-hydroxy-1'-[(3-methoxyphenyl)su Ifonyl]-N-(3-methylphenyl)-4-(trifluoromethyl)-1',2'-dihydrospiro[cyclohexane-1,3'-indole]-5'-carboxamide], the IC50 is reported as 3410 nM. With `O=C(Nc1cncc(C(F)(F)F)c1)c1ccc2c(c1)C1(CCC(O)(C(F)(F)F)CC1)C(C1CC1)N2S(=O)(=O)c1ccc(F)cc1` (stereo not drawn) [Example 58, 2'-cyclopropyl-1'-[(4-fluorophenyl)sulfonyl]-4-hydroxy-4-(trifluoromethyl)-N-[5-(trifluoromethyl)pyridin-3-yl]-1',2'-dihydrospiro[cyclohexane-1,3'-indole]-5'-carboxamide] the IC50 was 3120 nM. In the case of `COC(=O)c1cccc(S(=O)(=O)N2c3ccc(C(=O)NCc4ncccc4Cl)cc3C3(CCCCC3)C2C2CC2)c1` (stereo not drawn) [Example 11, methyl 3-{[5'-{[(3-chloropyridin-2-yl)methyl]carbamoyl}-2'-cyclopropylspiro[cyclohexane-1,3'-indol]-1'(2'H)-yl]sulfonyl}benzoate], the IC50 is reported as 1220 nM. `O=C(Nc1cc[nH]n1)c1ccc2c(c1)C1(CCC(O)(C(F)(F)F)CC1)C(C1CC1)N2S(=O)(=O)c1ccc(F)cc1` (stereo not drawn) [Example 52, 2'-cyclopropyl-1'-[(4-fluorophenyl)sulfonyl]-4-hydroxy-N-(1H-pyrazol-3-yl)-4-(trifluoromethyl)-1',2'-dihydrospiro[cyclohexane-1,3'-indole]-5'-carboxamide] showed an IC50 of 716 nM. `COC(=O)c1cccc(S(=O)(=O)N2c3ccc(C(=O)NCc4ncccc4C(F)(F)F)cc3C3(CCC(O)(C(F)(F)F)CC3)C2C2CC2)c1` (stereo not drawn) [Example 29, methyl 3-{[2'-cyclopropyl-4-hydroxy-4-(trifluoromethyl)-5'-({[3-(trifluoromethyl)pyridin-2-yl]methyl}carbamoyl)spiro[cyclohexane-1,3'-indol]-1'(2'H)-yl]sulfonyl}benzoate] gave an IC50 of 612 nM. Compound `COc1cccc(S(=O)(=O)N2c3ccc(C(=O)Nc4cccc(S(C)(=O)=O)c4)cc3C3(CCC(O)(C(F)(F)F)CC3)C2C2CC2)c1` (stereo not drawn) [Example 36, 2'-cyclopropyl-4-hydroxy-1'-[(3-methoxyphenyl)su Ifonyl]-N-[3-(methylsulfonyl)phenyl]-4-(trifluoromethyl)-1',2'-dihydrospiro[cyclohexane-1,3'-indole]-5'-carboxamide] has an IC50 of 1270 nM. `COC(=O)c1cccc(NC(=O)c2ccc3c(c2)C2(CCC(O)(C(F)(F)F)CC2)C(C2CC2)N3S(=O)(=O)c2cccc(OC)c2)c1` (stereo not drawn) [Example 31, methyl 3-[({2'-cyclopropyl-4-hydroxy-1'-[(3-methoxyphenyl)su Ifonyl]-4-(trifluoromethyl)-1',2'-dihydrospiro[cyclohexane-1,3'-indol]-5'-yl}carbonyl)amino] benzoate] was tested, and the IC50 was 669 nM. `O=C(NC1(c2ccc(Cl)cc2)CC1)c1ccc2c(c1)C1(CCC(O)(C(F)(F)F)CC1)C(C1CC1)N2S(=O)(=O)c1ccc(F)cc1` (stereo not drawn) [Example 51, N-[1-(4-chlorophenyl)cyclopropyl]-2'-cyclopropyl-1'-[(4-fluorophenyl)sulfonyl]-4-hydroxy-4-(trifluoromethyl)-1',2'-dihydrospiro[cyclohexane-1,3'-indole]-5'-carboxamide] gave an IC50 of 551 nM. `COc1cccc(S(=O)(=O)N2c3ccc(C(=O)Nc4cccc(C(=O)O)c4)cc3C3(CCC(O)(C(F)(F)F)CC3)C2C2CC2)c1` (stereo not drawn) [Example 35, 3-[({2'-cyclopropyl-4-hydroxy-1 '-[(3-methoxyphenyl)su Ifonyl]-4-(trifluoromethyl)-1',2'-dihydrospiro[cyclohexane-1,3'-indol]-5'-yl}carbonyl)amino] benzoic acid] gave an IC50 of 1380 nM. Work on `CC(C)=CCC1N(S(=O)(=O)c2ccc(F)cc2)c2ccc(C(=O)NCC3CCCCC3)cc2C12CCC(O)(C(F)(F)F)CC2` (stereo not drawn) [Example 21, N-(cyclohexylmethyl) -1'-[(4-fluorophenyl)sulfonyl]-4-hydroxy-2'-(3-methylbut-2-en-1-yl)-4-(trifluoromethyl)-(trifluoromethyl)-1',2'-dihydrospiro[cyclohexane-1,3'-indole]-5'-carboxamide] yielded an IC50 of 13200 nM. Compound `O=C(Nc1cccc(C(F)(F)F)c1)c1ccc2c(c1)C1(CCC(O)(C(F)(F)F)CC1)C(C1CC1)N2S(=O)(=O)c1ccc(F)cc1` (stereo not drawn) [Example 54, 2'-cyclopropyl-1 [(4-fluorophenyl)sulfonyl]-4-hydroxy-4-(trifluoromethyl)-N-[3-(trifluoromethyl)phenyl]-1',2'-dihydrospiro[cyclohexane-1,3'-indole]-5'-carboxamide] has an IC50 of 2320 nM. With `COc1cccc(S(=O)(=O)N2c3ccc(C(=O)Nc4cncc(C)c4)cc3C3(CCC(O)(C(F)(F)F)CC3)C2C2CC2)c1` (stereo not drawn) [Example 39, 2'-cyclopropyl-4-hydroxy-1'-[(3-methoxyphenyl)su Ifonyl]-N-(5-methylpyridin-3-yl)-4-(trifluoromethyl)-1',2'-dihydrospiro[cyclohexane-1,3'-indole]-5'-carboxamide] the IC50 was 1680 nM. `COC(=O)c1cccc(NC(=O)c2ccc3c(c2)C2(CCC(O)(C(F)(F)F)CC2)C(C2CC2)N3S(=O)(=O)c2ccc(F)cc2)c1` (single isomer, unassigned) [Example 30-1] showed an IC50 of 142 nM. In the case of `O=C(NCc1ncccc1C(F)(F)F)c1ccc2c(c1)C1(CCC(O)(C(F)(F)F)CC1)C(C1CC1)N2S(=O)(=O)c1ccc(F)cc1` (stereo not drawn) [Example 65, 2'-cyclopropyl-1'-[(4-fluorophenyl)sulfonyl]-4-hydroxy-4-(trifluoromethyl)-N-{[3-(trifluoromethyl)pyridin-2-yl]methyl}-1',2'-dihydrospiro[cyclohexane-1,3'-indole]-5'-carboxamide], the IC50 is reported as 311 nM. Compound `O=C(NCc1ccccc1Cl)c1ccc2c(c1)C1(CCC(O)(C(F)(F)F)CC1)C(C1CC1)N2S(=O)(=O)c1ccc(F)cc1` (single isomer, unassigned) [Example 62-2] has an IC50 of 3280 nM.
